Test [1] deals with mitochondria. Put plainly: Cytochrome c release from isolated liver mitochondria (immunoblot densitometry or ELISA). In kind it is biochemical, Balb/cJ mice. Here is the method:
Mitochondria were isolated from liver of Balb/cJ mice by standard differential centrifugation, and resuspended in isolation buffer (IB) (0.2 M sucrose, 10 mM Tris-MOPS pH 7.4, 0.1 mM EGTA-Tris, 0.1% delipidated BSA).
At the indicated time, mitochondria were pelleted by centrifugation at 12000×g at 4° C. for 3 min, and resuspended in the same volume of EB. Cytochrome c release was determined either by densitometry (Stratagene Eagle Eye II, BioRad) of immunoblots, or by rat/mouse specific ELISA performed on mitochondrial pellet and supernatant diluted 1:20 in PBS containing 0.5% Triton X-100 (R&D systems, MN). Cytochrome c is reported as the percentage of the supernatant over the total (pellet plus supernatant).
For SDS-PAGE, 20 μg of mitochondrial protein was loaded in each lane of a 12% NuPAGE (NoVex, CA) gel. After separation, proteins were transferred onto PVDF membranes (Immobilon-P, Millipore, Calif.) and membranes were probed as indicated with the following primary antibodies: anti-cytochrome c (Pharmingen, CA, 1:1000); anti-BID (1:1500); anti-BAK (Calbiochem, CA, 1:1000). HRPO-conjugated secondary antibodies (CalTag, CA, 1:2000) were visualized by chemiluminescence (Amersham, N.J.).
(§1) Mitochondria were incubated with increasing amounts of digitonin to assess how much cytochrome c was released from IMS by the selective solubilization of the OM (Hoppel and Cooper, 107, 367-375, 1968). To monitor interaction of digitonin with the […], uncoupled respiration in the presence of excess exogenous cytochrome c was assessed. Specifically 0.5 mg/ml mitochondria was incubated in EB with the indicated concentration of digitonin. After 5 minutes, mitochondria were centrifuged and cytochrome c content in the resulting pellet and supernatant were determined as described. Uncoupled JO2, uncoupled respiratory rate was recorded in parallel experiments. After 5 minutes of incubation with the indicated concentration of digitonin, mitochondria were treated with 400 pmol CCCP×mg protein-1 in the presence of 10 nmol cytochrome c×mg protein.
Background: Immunoblotting shows a protein as a band on a membrane.

For test [2], the system named is mitochondria. Put plainly: Uncoupled respiration (JO2) of digitonin-treated mitochondria. The test is classed as biochemical, Balb/cJ mice. To be noted: CCCP, exogenous cytochrome c. Here is the method:
as §1, with “protein. Approximately 16% of the total cytochrome c could be released by digitonin without substantial respiratory inhibition (no interference of digitonin with the IM) (Table 1), a percentage in agreement with the pool of cytochrome c estimated to reside in the IMS (Bernardi and Azzone, 1981). Therefore, tBID must deploy additional events to enable the release of nearly all cytochrome c from the mitochondrion.” for “protein.”

The subject of a further test is Bak −/− mitochondria. The experiment in a line: Digitonin releasable cytochrome c pool. In kind it is biochemical. To be noted: digitonin concentration that does not interfere with IM function (80 pmol × mg protein^−1, 5 mins).
The subject of the next test is wt mitochondria. Put plainly: Cytochrome b5-dependent NADH oxidation assay. In kind it is biochemical, Balb/cJ mice. To be noted: 10 μM BID α6 14mer, 20 min. Here is the method: (d), mitochondria were preincubated for 2 min with 800 pmol CsA×mg protein^−1. (a), no additions. After 15 min, respiratory chain inhibitors were added and after another 2 minutes NADH fluorescence reading started. Arrow, 20 nmol NADH×mg protein^−1. In (e), 200 nmol mersalyl×mg protein was added 1 min before NADH.
In the cytochrome b5-dependent NADH oxidation assay, 1 mg/ml mitochondria were incubated in EB and treated as indicated. 400 pmol CCCP, 2 nmol rotenone and 1 nmol antimycin A×mg protein^−1 were added after the time indicated and the reaction transferred to a cuvette. After 2 min, 10 μM NADH was added and its oxidation monitored as the decrease in NADH fluorescence in a LS50B spectrofluorimeter (Perkin Elmer) set with λex=366 nm and λem=455 nm, with 5 nm slits.

The next test concerns BAK. Put plainly: BAK oligomerization (BMH crosslinking, anti-BAK immunoblot). To be noted: 10 μM BID α6 14mer, 30 min. In kind it is biochemical, Balb/cJ mice. How it is done: In lanes 7-8 mitochondria were pretreated with 800 pmol CsA×mg protein^−1 for 3 mins. After the indicated time, DMSO (lanes 1-2) or 10 mM BMH (lanes 3-8) was added, and after another 30 min the crosslinking reaction was quenched (Wei et al., 2001). The mitochondria were subjected to SDS-PAGE and immunoblot with anti BAK antibody. Star, BAK multimers.
To also determine if the BID α6 14mer (SEQ ID NO:1) modulated BAK oligomerization, mitochondria were incubated for 30 min with 10 μM BID α6 14mer in the presence or in the absence of 1 μM CsA. Crosslinking with BMH, SDS-PAGE and anti BAK immunoblotting was carried out.

For test [3], the system named is mitochondria. Put plainly: Mitochondrial swelling by side scatter at 545 nm. In kind it is biochemical, Balb/cJ mice. Conditions: 10 μM 14mer. Here is the method:
tBID was evaluated to determine if it causes any swelling or depolarization that might reflect an opening of the PTP. Swelling of 0.5 mg/ml mitochondria incubated in EB was monitored by changes in side scatter at 545±2.5 nm using LS-50B spectrofluorimeter equipped with magnetic stirring at 25° C. Membrane potential changes of 0.5 mg/ml mitochondria incubated in experimental buffer were monitored from the dequenching of a 0.3 μM Rhodamine 123 (Molecular Probes, OR) solution in a LS-50B spectrofluorimeter at 25° C., using excitation and emission wavelengths set at 503±2.5 nm and 525±5 nm, respectively.
To determine if the BID α6 14mer (SEQ ID NO:1) induced mitochondrial swelling or release of cytochrome c across the mitochondrial outer membrane, mitochondria at 1 mg/ml were incubated in experimental buffer and, where indicated, 20 μM Ca^2+ and 10 μM 14mer were added. Where noted, mitochondria were preincubated with CsA. […] Mitochondria were incubated with 10 μM 14mer in the presence or in the absence of 1 μM CsA. At the indicated time in minutes, mitochondria were pelleted by centrifugation and cytochrome c in the pellet and in the supernatant was determined.

Test [4] deals with calcein loaded mitochondria. The experiment in a line: Release of matrix-entrapped calcein (transient PTP opening). To be noted: 10 μM BID α6 14mer. The test is classed as biochemical, Balb/cJ mice. Here is the method:
To assess calcein release, mitochondria suspended in IB without BSA were loaded with 10 nmol×mg protein^−1 calcein-AM (Molecular Probes, Eugene, Oreg.) for 20 mins at room temperature in the dark. Following two washes in IB, the calcein loaded mitochondria were resuspended in IB at a final concentration of 10 mg/ml. 0.5 mg/ml calcein loaded mitochondria were incubated in EB and treated as described. After the indicated time, mitochondria were pelleted. Calcein was measured in an LS-50B spectrofluorimeter (Perkin Elmer) with excitation and emission wavelengths set at 488±2.5 nm and 542±2.5 nm, respectively.
After 30 min mitochondria were spun at 14000 g for 3 min at 4 C and the calcein content in the pellet and in the supernatant was determined. […] To determine if a BID α6 mutation variant, BID α6 mutein (SEQ ID NO:7), would inhibit cytochrome c release, His-tag p22 wt BID and the BID α6 mutein were expressed, purified on a Ni^2+ column, and cleaved with caspase 8.
Mitochondria were loaded with calcein and treated with 10 μM BID α6 14mer. Where noted, mitochondria were pretreated with 1 μM CsA. At the indicated time, mitochondria were pelleted by centrifugation and calcein in the pellet and in the supernatant was determined.

Here are results for two compounds from patent US7829662B2, “Method of treating apoptosis and compositions thereof” (Dana Farber Cancer Institute, Inc., priority 2001, dated 2010).

“Also recorded” adds a separate entry of the source.

For the compound `C[C@@H]1CC[C@@]2(OC1)O[C@H]1[C@@H](O)[C@H]3[C@@H]4CC[C@H]5C[C@@H](O[C@@H]6O[C@H](CO)[C@H](O[C@@H]7O[C@H](CO)[C@@H](O)[C@H](O[C@@H]8OC[C@@H](O)[C@H](O)[C@H]8O)[C@H]7O[C@@H]7O[C@H](CO)[C@H](O)[C@H](O[C@@H]8O[C@H](CO)[C@@H](O)[C@H](O)[C@H]8O)[C@H]7O)[C@H](O)[C@H]6O)[C@H](O)C[C@]5(C)[C@H]4CC[C@]3(C)[C@H]1[C@@H]2C` [Digitonin], the “Cytochrome c release (% of total)” value is listed as 10.7 % of total in the test on mitochondria [1] (Digitonin 48 pmol × mg protein^−1, 5 minutes); 16.4 % of total with mitochondria [1] (Digitonin 80 pmol × mg protein^−1, 5 minutes); 26.6 % of total in the test on mitochondria [1] (Digitonin 145 pmol × mg protein^−1, 5 minutes). Moreover, in the test with mitochondria [1] (without substantial respiratory inhibition), the “total cytochrome c released by digitonin” value is given as “Approximately 16%”. Besides, the “Uncoupled JO2” value in the test on mitochondria [2] (Digitonin 48 pmol × mg protein^−1) is given as 60 nAt × min^−1 × mg protein^−1; in the test with mitochondria [2] (Digitonin 80 pmol × mg protein^−1) it was 60 nAt × min^−1 × mg protein^−1; in the test with mitochondria [2] (Digitonin 145 pmol × mg protein^−1) it was 46.7 nAt × min^−1 × mg protein^−1. Besides, the “release of total cytochrome c by digitonin” value with Bak −/− mitochondria is 19.2±4.8%.
As to “NH2-XMLXXXXLLAKKVA—COOH [BID α6 14mer, 14 amino acid peptide of the BID α6 helix]”, the “mobilization of cytochrome c (cytochrome b5-dependent NADH oxidation)” value in the test on wt mitochondria is “induced the mobilization of cytochrome c; also recorded: induces cytochrome c redistribution”. Also, in the test on BAK, the BAK oligomerization result is “did not result in BAK oligomerization; also recorded: does not induce BAK oligomerization”. Also, the mitochondrial swelling entry with mitochondria [3] was “did not induce swelling of mitochondria; also recorded: does not induce mitochondrial swelling”. The “release of cytochrome c across the mitochondrial outer membrane” value in the test with mitochondria [1] (10 μM 14mer) is “nor did it trigger the actual release of cytochrome c across the mitochondrial outer membrane; also recorded: does not cause cytochrome c release across the outer membrane”. In test [4], the “calcein release (onset of transient PT)” value is on record as “resulted in the efflux of mitochondrial matrix entrapped calcein; also recorded: causes calcein release from mitochondria”.
